The numbers were not newly measured in the PKSmart pharmacokinetics tables (Seal et al. 2025), which cites them from elsewhere.

Molecules are shown by their SMILES.

A short description of one data set: not given per row; by the article one of three: Lombardo et al. 2013, J Clin Pharmacol 53:178, doi 10.1177/0091270012440282; 'New Drugs at FDA', novel drug approvals for 2021 and 2022 (the article's reference 43); Yap, Li, Chen 2006, J Mol Graph Model 24:383, doi 10.1016. Conditions: human; in vivo.
Consider `O=C(O)C1/C(=C\CO)O[C@H]2CC(=O)N12` (some centres not stated), for which the clearance was 3.6 mL/min/kg.

Turning to `CCCC[C@@H]1CC(=O)[C@]2(O)O[C@H]3[C@@H](NC)[C@@H](O)[C@@H](NC)[C@H](O)[C@@H]3O[C@@H]2O1`, the clearance is 1.9 mL/min/kg.

`O=C(O)CN(CCN(CC(=O)O)CC(=O)O)CC(=O)O`: the clearance is 1.09 mL/min/kg.

On to `CCN(CC)CC#CCOC(=O)[C@](O)(c1ccccc1)C1CCCCC1`, for which the clearance is 8.1 mL/min/kg.

With `O=C(O)CCC(NC(=O)NC(CCCCNC(=O)c1ccc([18F])nc1)C(=O)O)C(=O)O` (configuration not stated), the half-life was 208 min.

Take `CN1CCN(c2c(F)cc3c(=O)c(C(=O)O)cn4c3c2SCC4)CC1`: the clearance is 0.57 mL/min/kg.

Turning to `NS(=O)(=O)c1cc2c(cc1Cl)N=CNS2(=O)=O`, the clearance was 4.5 mL/min/kg.

Regarding `COc1ccc(OC)c(Cc2cnc3nc(N)nc(N)c3c2C)c1`, the clearance was 2.21 mL/min/kg.

With `CON=C(C(=O)NC1C(=O)N2C(C(=O)O)=C(C)CS[C@@H]12)c1csc(N)n1` (some centres not stated), the clearance is 2 mL/min/kg.

On to `COC(=O)C(c1ccccc1)C1CCCCN1C(=O)OC[n+]1cccc(C(=O)NC(CO)C(=O)[O-])c1` (configuration not stated), for which the Vd was 29.3 L/kg, the clearance was 60 mL/min/kg and the half-life is 342 min.

On to `CC(=O)OCC1=C(C(=O)O)N2C(=O)C(NC(=O)CSc3ccncc3)[C@@H]2SC1` (some centres not stated), for which the clearance is 6.36 mL/min/kg.

Take `O=C(c1ccc(NS(=O)(=O)c2cccc3cccnc23)cc1)N1CCN(CC2CC2)CC1`: the Vd is 0.71 L/kg, the clearance was 3.47 mL/min/kg and the half-life is 240 min.

As to `O=[P@@]1(N(CCCl)CCCl)NCCCO1`, the clearance is 2.54 mL/min/kg.

On to `NC(=O)CN1CCCC1=O`, for which the clearance was 1.3 mL/min/kg.

For `CC(NC(C)(C)C)C(=O)c1cccc(Cl)c1` (configuration not stated), the clearance was 36 mL/min/kg.

On to `CCN(CC)c1cc(C)n2ncnc2n1`, for which the clearance was 3.79 mL/min/kg.

Consider `CC(C)(C)NC[C@@H](O)c1cc(O)cc(O)c1`, for which the clearance was 4 mL/min/kg.

Consider `O=C(O)CN1C(=O)C(NC(CCc2ccccc2)C(=O)O)CCc2ccccc21` (configuration not stated), for which the clearance was 0.35 mL/min/kg.

Turning to `[2H]C([2H])([2H])NC(=O)c1nnc(NC(=O)C2CC2)cc1Nc1cccc(-c2ncn(C)n2)c1OC`, the Vd was 2.33 L/kg, the clearance is 0.68 mL/min/kg and the half-life is 600 min.

Turning to `Cc1c(C(C)C)c(=O)n(-c2ccccc2)n1C`, the clearance was 11 mL/min/kg.

As for `CC[C@H](CO)NCCN[C@@H](CC)CO`, the clearance is 8.05 mL/min/kg.

Take `CN[C@H](C)[C@H](O)c1ccccc1`: the clearance was 7.33 mL/min/kg.

In the case of `COC[C@H]1CN=C(c2ccccc2Cl)c2cc(Br)ccc2N1C`, the clearance is 11.1 mL/min/kg.

With `CON=C(C(=O)NC1C(=O)N2C(C(=O)[O-])C(=C[N+]34CCC(C(N)=O)(CC3)CC4)CSC12)c1nsc(N)n1` (configuration not stated), the Vd was 0.27 L/kg and the clearance was 1.7 mL/min/kg.

Regarding `CC12CCC(=O)C=C1C1CC1C1C2CCC2(C)C1C1CC1C21CCC(=O)O1` (configuration not stated), the half-life was 2040 min.

In the case of `CC(C)[N+](C)(CCOC(=O)C1c2ccccc2Oc2ccccc21)C(C)C`, the clearance is 18.9 mL/min/kg.

Turning to `CNCC[C@H](Oc1ccccc1C)c1ccccc1`, the clearance was 3.63 mL/min/kg.

Take `CCOCn1c(Cc2ccccc2)c(C(C)C)c(=O)[nH]c1=O`: the clearance was 28.6 mL/min/kg.

On to `O=C1Nc2ccc(Cl)cc2[C@@](C#CC2CC2)(C(F)(F)F)O1`, for which the clearance is 3.1 mL/min/kg.

For the molecule `Cc1ccc(C(=O)c2ccc(CC(=O)O)n2C)cc1`, the clearance was 1.3 mL/min/kg.

Regarding `CN1c2ccccc2[C@H](NCCCCCCC(=O)O)c2ccc(Cl)cc2S1(=O)=O`, the clearance was 3.43 mL/min/kg.

Consider `CCN1CCN(c2ccc(Nc3cc(N(C)C(=O)Nc4c(Cl)c(OC)cc(OC)c4Cl)ncn3)cc2)CC1`, for which the Vd is 26.7 L/kg, the clearance is 9.19 mL/min/kg and the half-life was 2010 min.

Regarding `CN[C@@]1(c2ccccc2Cl)CCCCC1=O`, the clearance is 16.3 mL/min/kg.

Regarding `CC(C)[C@@H](C)[C@@]1(C)CC[C@]2(C)[C@H]3CC[C@@H]4[C@@]5(COC[C@@]4(C)[C@@H](OC[C@](C)(N)C(C)(C)C)[C@H](n4ncnc4-c4ccncc4)C5)C3=CC[C@@]2(C)C1C(=O)O` (some centres not stated), the distribution volume (Vd) was 10 L/kg and the half-life is 1200 min.

Turning to `CCCC(NC(C)C(=O)N1C(C(=O)O)C[C@@H]2CCCC[C@H]21)C(=O)OCC` (some centres not stated), the clearance is 6.19 mL/min/kg.

For the molecule `CON=C(C(=O)NC1C(=O)N2C(C(=O)O)=CCS[C@H]12)c1csc(=N)[nH]1` (some centres not stated), the clearance is 1.79 mL/min/kg.

For the molecule `CO[C@]1(NC(=O)C(C(=O)O)c2ccc(O)cc2)C(=O)N2C(C(=O)O)=C(CSc3nnnn3C)CO[C@@H]21` (some centres not stated), the clearance is 1.32 mL/min/kg.

Take `CN1c2c(oc(=O)n(-c3ccccn3)c2=O)-c2ccccc2S1(=O)=O`: the clearance was 0.05 mL/min/kg.

Still in this data set, the particulars now being: human; plasma.
Take `COc1cc2nccc(Oc3ccc(NC(=O)Nc4cc(C)on4)c(Cl)c3)c2cc1OC`: the fraction unbound is 0.01.

On to `C=CC(=O)N1CC[C@H](n2nc(C#Cc3cc(OC)cc(OC)c3)c3c(N)ncnc32)C1`, for which the fraction unbound was 0.05.

As to `Cc1ccc(NC(=O)C2CCCN(C(=O)c3c(C)cccc3F)[C@H]2c2ccc(NC3CCCC3)cc2)cc1C(F)(F)F` (some centres not stated), the fraction unbound was 0.01.

As to `CC(C)CC(NC(=O)C(Cc1ccccc1)NC(=O)C(N)Cc1ccccc1)C(=O)NC(CCCCN)C(=O)N1CCC(N)(C(=O)O)CC1` (configuration not stated), the fraction unbound is 0.75.

`CCOc1ncc(C)c2c1[C@H](c1ccc(C#N)cc1OC)C(C(N)=O)C(C)=N2` (some centres not stated): the unbound share (fraction unbound) is 0.08.

`C[C@@H]1[C@H](c2c(F)ccc(F)c2F)CC(NC(=O)c2cnc3c(c2)C[C@@]2(C3)C(=O)Nc3ncccc32)C(=O)N1CC(F)(F)F` (some centres not stated): the fraction unbound is 0.05.

For the molecule `CC(C)Oc1ccc(-c2nn([C@@H](C)c3oc4ccc(F)cc4c(=O)c3-c3cccc(F)c3)c3ncnc(N)c23)cc1F`, the unbound share (fraction unbound) is 0.01.

Take `COC(=O)C(c1ccccc1)C1CCCCN1C(=O)OC[n+]1cccc(C(=O)NC(CO)C(=O)[O-])c1` (configuration not stated): the fraction unbound was 0.44.

As to `O=C(c1ccc(NS(=O)(=O)c2cccc3cccnc23)cc1)N1CCN(CC2CC2)CC1`, the fraction unbound was 0.02.

On to `CN1CCC(COc2cnc(-c3cccc(Cn4nc(-c5cccc(C#N)c5)ccc4=O)c3)nc2)CC1`, for which the fraction unbound is 0.02.

For the molecule `[2H]C([2H])([2H])NC(=O)c1nnc(NC(=O)C2CC2)cc1Nc1cccc(-c2ncn(C)n2)c1OC`, the fraction unbound was 0.14.

On to `CC12CCC(=O)C=C1C1CC1C1C2CCC2(C)C1C1CC1C21CCC(=O)O1` (configuration not stated), for which the fraction unbound is 0.04.

As for `CCN1CCN(c2ccc(Nc3cc(N(C)C(=O)Nc4c(Cl)c(OC)cc(OC)c4Cl)ncn3)cc2)CC1`, the fraction unbound is 0.03.

In the case of `CC(C)[C@@H](C)[C@@]1(C)CC[C@]2(C)[C@H]3CC[C@@H]4[C@@]5(COC[C@@]4(C)[C@@H](OC[C@](C)(N)C(C)(C)C)[C@H](n4ncnc4-c4ccncc4)C5)C3=CC[C@@]2(C)C1C(=O)O` (some centres not stated), the fraction unbound is 0.01.

Usually clearance stands for the rate of elimination divided by the concentration. Broadly, the half-life is the time needed for the level to fall by half in the phase considered. A word on the Vd: it is a proportionality between amount in the body and measured concentration, not a real space. The fraction unbound is free concentration divided by total concentration.
